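In this assay, cells in 96-well plates receive the compound at five concentrations for 48 hours. Endpoints are linearly interpolated between the surrounding concentrations. GI50 is the concentration that inhibits growth by half.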 Calls of active or inactive are those of the source. Cut-off read from the data, not from the text of the source: active = GI50 up to about 1.1 µM and inactive = higher.
What was measured:
Test in all cases: growth of human tumour cells (NCI), 48 h
[1] = tested on: CAKI-1
[2] = tested on: CCRF-CEM
[3] = tested on: EKVX
[4] = tested on: HCT-116
[5] = tested on: HL-60
[6] = tested on: HOP-92
[7] = tested on: IGROV-1
[8] = tested on: KM12
[9] = tested on: NCI-H226
[10] = tested on: NCI-H460
[11] = tested on: OVCAR-3
[12] = tested on: OVCAR-4
[13] = tested on: SF-295
[14] = tested on: SK-MEL-28
[15] = tested on: SK-MEL-5
[16] = tested on: SN12C
[17] = tested on: SNB-19
[18] = tested on: U-251
[19] = tested on: UACC-257
[20] = tested on: UACC-62

Compound | GI50 [1] | GI50 [2] | GI50 [3] | GI50 [4] | GI50 [5] | GI50 [6] | GI50 [7] | GI50 [8] | GI50 [9] | GI50 [10] | GI50 [11] | GI50 [12] | GI50 [13] | GI50 [14] | GI50 [15] | GI50 [16] | GI50 [17] | GI50 [18] | GI50 [19] | GI50 [20]
O=C1C(Cl)=C(c2ccc([N+](=O)[O-])cc2)C(=O)c2c(O)cccc21 | 1.29 µM (inactive) | 1.55 µM (inactive) | 3.35 µM (inactive) | 1.06 µM (active) | 3.48 µM (inactive) | 1.44 µM (inactive) | 2.39 µM (inactive) | 1.11 µM (active) | 1.73 µM (inactive) | 2.3 µM (inactive) | 1.3 µM (inactive) | 1.93 µM (inactive) | 2.7 µM (inactive) | 1.26 µM (inactive) | 1.87 µM (inactive) | 2.96 µM (inactive) | 1.45 µM (inactive) | 0.8 µM (active) | 1.9 µM (inactive) | 0.508 µM (active)
Cc1c2cc[n+](Cc3ccc(I)cc3)cc2c(C)c2c1[nH]c1ccccc12 | 0.714 µM (active) | 0.448 µM (active) | 1.19 µM (inactive) | 0.574 µM (active) | 0.488 µM (active) | 0.56 µM (active) | 1.1 µM (active) | 0.402 µM (active) | 0.552 µM (active) | 0.281 µM (active) | 0.791 µM (active) | 0.546 µM (active) | 0.296 µM (active) | 1.45 µM (inactive) | 0.49 µM (active) | 0.548 µM (active) | 0.471 µM (active) | 0.21 µM (active) | 0.646 µM (active) | 1.12 µM (active)
CO/C=C1\OC(=O)C=C1OC | > 100 µM (inactive) | > 100 µM (inactive) | > 100 µM (inactive) | > 100 µM (inactive) | > 100 µM (inactive) | > 100 µM (inactive) | > 100 µM (inactive) | > 100 µM (inactive) | > 100 µM (inactive) | > 100 µM (inactive) | > 100 µM (inactive) | > 100 µM (inactive) | > 100 µM (inactive) | > 100 µM (inactive) | > 100 µM (inactive) | > 100 µM (inactive) | > 100 µM (inactive) | > 31.6 µM (inactive) | > 100 µM (inactive) | > 100 µM (inactive)
CC1(C)CCC(C)(C)c2c1ccc(O)c2Cc1c(O)ccc2c1C(C)(C)CCC2(C)C | 2.15 µM (inactive) | 2.31 µM (inactive) | 2.93 µM (inactive) | 2 µM (inactive) | 2.76 µM (inactive) | 1.95 µM (inactive) | 1.97 µM (inactive) | 1.95 µM (inactive) | 1.88 µM (inactive) | 2.47 µM (inactive) | 2.21 µM (inactive) | 1.81 µM (inactive) | 2.45 µM (inactive) | 2.12 µM (inactive) | 1.87 µM (inactive) | 1.82 µM (inactive) | 2.28 µM (inactive) | 1.78 µM (inactive) | 1.85 µM (inactive) | 2.02 µM (inactive)
O=C1NCN(c2ccccc2)C12CCN(CCCSc1ccc(F)cc1)CC2 | > 51.5 µM (inactive) | 7 µM (inactive) | 28.2 µM (inactive) | 5.09 µM (inactive) | 21.8 µM (inactive) | 9.71 µM (inactive) | 9.1 µM (inactive) | 30.2 µM (inactive) | 25.5 µM (inactive) | 13 µM (inactive) | 55.6 µM (inactive) | 13.8 µM (inactive) | 39 µM (inactive) | 55.2 µM (inactive) | 6.44 µM (inactive) | 21.4 µM (inactive) | 97.3 µM (inactive) | > 88.5 µM (inactive) | 2.92 µM (inactive) | 27.4 µM (inactive)
C=CCOC1=C(OCC=C)C(C2COC(C)(C)O2)OC1=O (stereo not given) | 18.7 µM (inactive) | 29.4 µM (inactive) | > 100 µM (inactive) | > 100 µM (inactive) | 45 µM (inactive) | 14.8 µM (inactive) | > 100 µM (inactive) | > 100 µM (inactive) | > 100 µM (inactive) | > 100 µM (inactive) | > 100 µM (inactive) | > 100 µM (inactive) | > 100 µM (inactive) | > 100 µM (inactive) | > 100 µM (inactive) | > 100 µM (inactive) | > 100 µM (inactive) | > 100 µM (inactive) | > 100 µM (inactive) | > 100 µM (inactive)
O=C(O)CNS(=O)(=O)c1ccc(NC(=O)Nc2ccccc2)cc1 | > 100 µM (inactive) | > 100 µM (inactive) | > 100 µM (inactive) | > 100 µM (inactive) | > 31.6 µM (inactive) | > 100 µM (inactive) | > 37.6 µM (inactive) | > 100 µM (inactive) | > 100 µM (inactive) | > 100 µM (inactive) | > 100 µM (inactive) | > 100 µM (inactive) | > 100 µM (inactive) | > 100 µM (inactive) | > 100 µM (inactive) | > 100 µM (inactive) | > 100 µM (inactive) | > 100 µM (inactive) | > 100 µM (inactive) | > 38.3 µM (inactive)
CN(C)CCNC(=O)c1cccc2[nH]c(-c3ccc(Cl)cc3)nc12 | 2.82 µM (inactive) | 6.21 µM (inactive) | 12.4 µM (inactive) | 3.28 µM (inactive) | 2.77 µM (inactive) | 5.25 µM (inactive) | 7.35 µM (inactive) | 6.95 µM (inactive) | 4.59 µM (inactive) | 3.12 µM (inactive) | 10.2 µM (inactive) | 7.24 µM (inactive) | 8.18 µM (inactive) | 17.1 µM (inactive) | 4.8 µM (inactive) | 5.07 µM (inactive) | 7.87 µM (inactive) | 5.42 µM (inactive) | 7.78 µM (inactive) | 5.53 µM (inactive)
COc1cc(C2(c3ncc[nH]3)SSSCC2O)ccc1O (stereo not given) | 86.1 µM (inactive) | 11.9 µM (inactive) | 94 µM (inactive) | 32.6 µM (inactive) | 29.6 µM (inactive) | 6.25 µM (inactive) | 47.2 µM (inactive) | > 100 µM (inactive) | 66.4 µM (inactive) | > 46.2 µM (inactive) | 32.2 µM (inactive) | 22.2 µM (inactive) | 39.1 µM (inactive) | > 100 µM (inactive) | 11.7 µM (inactive) | 47.8 µM (inactive) | > 87.7 µM (inactive) | > 56.2 µM (inactive) | 18.4 µM (inactive) | 22.6 µM (inactive)
C=CS(=O)(=O)c1c2cc(OC)ccc2nc2ccc(OC)cc12 | 4.22 µM (inactive) | 3.22 µM (inactive) | 8.32 µM (inactive) | 2.11 µM (inactive) | 7.96 µM (inactive) | 5.33 µM (inactive) | 2.92 µM (inactive) | 9.89 µM (inactive) | 15.6 µM (inactive) | 5.12 µM (inactive) | 2.82 µM (inactive) | 13.1 µM (inactive) | 15 µM (inactive) | 7.98 µM (inactive) | 14.1 µM (inactive) | 2.88 µM (inactive) | 12.6 µM (inactive) | 7.05 µM (inactive) | 7.53 µM (inactive) | 12.2 µM (inactive)
O=C1C2=C(C3=NCCc4c[nH]c1c43)c1c(Br)cc(Br)cc1CCN2 | 13.4 µM (inactive) | 2.58 µM (inactive) | 3.01 µM (inactive) | 1.84 µM (inactive) | 1.62 µM (inactive) | 9.18 µM (inactive) | 4.06 µM (inactive) | 2.56 µM (inactive) | 4.41 µM (inactive) | 3.03 µM (inactive) | 2.77 µM (inactive) | 2.22 µM (inactive) | 2.42 µM (inactive) | 8.49 µM (inactive) | 1.62 µM (inactive) | 2.28 µM (inactive) | 11.2 µM (inactive) | 3.66 µM (inactive) | 1.5 µM (inactive) | 1.14 µM (inactive)
